According to patent US20170218445A1, “DRUG DISCOVERY METHODS USING PLANT DEVELOPMENTAL BIOLOGY” (SEOUL NATIONAL UNIVERSITY R&DB FOUNDATION, priority 2014, published 2017):

Tested on: A. thaliana seedlings
Assay: Growth and development response of A. thaliana seedlings grown in liquid medium with anticancer drug or hot-water extract
Assay type: in vivo, Arabidopsis thaliana
Settings: for generation of lateral roots: anticancer drug treatment; for hypocotyl length growth depending on concentration: statistical computing, FIG. 11
Experimental: The Columbia seeds collected from wild-type A. thaliana plants were sterilized and then kept in a dark place at 4° C. for 3 days to enhance germination rate thereof. The wild-type A. thaliana seeds sown on an MS solid medium containing agar were germinated at 22° C. and on the long day condition of 16 hours the day/8 hours night and allowed to grow the A. thaliana seedlings for three days.
The undiluted extract of traditional herbal medicinal material described above was diluted at the ratios of 0.5×, 0.25× and 0.05×, and the MS liquid medium of 1 ml was mixed well with distilled water to make a total volume of 2 ml. in a 12-well cell culture plate. About ten A. thaliana seedlings were planted in each well and the plates were put on a shaker to cultivate them at 100 rpm for three days. Growth and development of the arabidopsis seedlings was analyzed after three days. Each test was carried out in 3 replicates.
The analysis of A. thaliana seedling response to anticancer drugs was made in the same manner, except that the anticancer drugs were applied instead of the traditional herbal medicinal material extract.
Root length, the number of lateral roots and hypocotyl length of the A. thaliana seedlings were measured in order to find the difference in developmental biology shown by the response of A. thaliana seedlings to the anticancer drugs and the extract. The ImageJ software (see rsb.info.nih.gov/ij/) was used to measure the respective lengths in images of the photograph file.
Crude extracts were made with the traditional herbal medicinal materials of each prescription and medicinal material components thereof, respectively, and the ⅕-fold-diluted solution was used as a first effective concentration. The solution was produced by adding 0.4 ml of the crude extract to 1 ml of the 0.5× MS medium and 0.6 ml of water.
For making more quantitative analysis of the reaction to respective traditional herbal medicinal materials, the number of lateral roots were measured for 12 or more A. thaliana seeedlings in each treatment group. […]

[1] = vs DMSO-treated control seedlings, FIG. 8

SMILES	root morphology (2 uM, three days after treatment, vs water-treated control roots, FIG. 9)	generation of lateral roots (FIG. 8)	hypocotyl length growth depending on concentration	number of lateral roots generated (treated or not with taxol, FIG. 8)	hypocotyl growth [1]	root growth [1]	trichome morphology (branches) (vs control group, FIG. 10)	generation of lateral roots at low concentration (0.05 uM)
CC(=O)O[C@H]1C(=O)[C@@]2(C)[C@H]([C@H](OC(=O)c3ccccc3)[C@]3(O)C[C@H](OC(=O)[C@H](O)[C@@H](NC(=O)c4ccccc4)c4ccccc4)C(C)=C1C3(C)C)[C@]1(OC(C)=O)CO[C@@H]1C[C@@H]2O [taxol, Paclitaxel]	dense root hairs and opaque epidermal cells	not significantly affected	inhibited in a significant level	Approximately five	inhibited in proportion to the concentrations	inhibited in proportion to the concentrations	changed from the three-branch type to the one-branch type	
CC[C@@]1(O)C(=O)OCc2c1cc1n(c2=O)Cc2cc3ccccc3nc2-1 [camptothecin]		markedly inhibited	inhibited in a significant level					inhibited generation of lateral roots
